{
  "source": "patent US20040142317A1",
  "about": "“Use of amino acid transporter atbo,+ as a delivery system for drugs and prodrugs” (priority 2003, published 2004)",
  "test_in_all_cases": "D-[3H]-serine transport in HRPE cells transfected with transporter cDNA",
  "type_in_all_cases": "cell-based",
  "details_in_all_cases": "D-[3H]-serine 5 μM",
  "key": {"SN1": {"target": "T1, SN1 (Homo sapiens, UniProt Q99624)", "T1 construct": "expressed in transfected cells; host or cells: HRPE cells", "T1 sequence (Q99624 whole entry, species assumed)": "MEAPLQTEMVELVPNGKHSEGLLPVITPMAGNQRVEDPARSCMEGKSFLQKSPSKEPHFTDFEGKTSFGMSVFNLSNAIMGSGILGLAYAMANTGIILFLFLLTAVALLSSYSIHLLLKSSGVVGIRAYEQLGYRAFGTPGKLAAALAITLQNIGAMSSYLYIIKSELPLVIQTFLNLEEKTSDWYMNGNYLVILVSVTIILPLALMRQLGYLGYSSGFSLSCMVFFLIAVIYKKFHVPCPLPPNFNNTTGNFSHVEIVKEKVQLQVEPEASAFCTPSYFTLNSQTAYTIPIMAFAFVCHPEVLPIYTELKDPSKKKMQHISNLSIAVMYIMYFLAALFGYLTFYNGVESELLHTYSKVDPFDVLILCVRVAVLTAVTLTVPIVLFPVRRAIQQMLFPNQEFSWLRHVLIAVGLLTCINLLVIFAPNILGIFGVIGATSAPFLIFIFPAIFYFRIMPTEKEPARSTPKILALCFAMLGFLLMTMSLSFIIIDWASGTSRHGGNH", "method": "(§1) Transport of D-[^3H]-serine (5 μM) was measured in HRPE cells transfected with cDNA of each transporter.\n(§2) The present inventors evaluated the function of 10 different amino acid transporter clones with respect to transport of D-serine in heterologous expression systems (FIG. 11). All of these transporters are expressed in the intestinal tract. The list of the transporters tested include three energy-independent, heterodimeric facilitative transporters (L1, L2, and b^0,+), three subtypes of the Na^+-coupled system A (ATA1, ATA2, and ATA3), two subtypes of the Na^+- and H^+-coupled system N (SN1 and SN2), the Na^+-coupled system ATB^0, and the Na^+- and Cl^−-coupled system ATB^0,+. […] The ability to transport D-serine was the highest for the Na^+- and Cl^−-coupled transporter ATB^0,+. ATB^0,+ belongs to the gene family of neurotransmitter transporters whose transport function is energized by multiple driving forces, namely a Na^+ gradient, a Cl^− gradient, and membrane potential. […] Based on the energetics of these two transport systems, ATB^0,+ is expected to play the leading role in this process."}, "LAT2/4F2hc": {"target": "T2, LAT2/4F2hc (Homo sapiens, UniProt Q9UHI5)", "T2 construct": "expressed in transfected cells; host or cells: HRPE cells", "T2 sequence (Q9UHI5 1-535)": "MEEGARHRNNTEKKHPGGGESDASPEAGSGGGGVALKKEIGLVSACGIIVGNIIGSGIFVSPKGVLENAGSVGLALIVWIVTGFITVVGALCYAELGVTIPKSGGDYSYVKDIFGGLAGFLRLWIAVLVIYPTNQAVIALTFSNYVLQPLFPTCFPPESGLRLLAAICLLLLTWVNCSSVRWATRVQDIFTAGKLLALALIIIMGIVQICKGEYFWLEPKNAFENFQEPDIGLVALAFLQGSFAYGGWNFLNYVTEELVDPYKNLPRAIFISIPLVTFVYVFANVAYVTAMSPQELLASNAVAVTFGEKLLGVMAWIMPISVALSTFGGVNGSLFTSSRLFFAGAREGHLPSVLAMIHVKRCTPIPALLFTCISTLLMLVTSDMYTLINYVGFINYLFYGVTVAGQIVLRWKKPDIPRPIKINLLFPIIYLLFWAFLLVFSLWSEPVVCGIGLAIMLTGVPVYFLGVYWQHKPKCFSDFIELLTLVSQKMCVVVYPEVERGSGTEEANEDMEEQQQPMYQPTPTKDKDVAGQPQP", "T2 sequence (P08195 1-529 partner)": "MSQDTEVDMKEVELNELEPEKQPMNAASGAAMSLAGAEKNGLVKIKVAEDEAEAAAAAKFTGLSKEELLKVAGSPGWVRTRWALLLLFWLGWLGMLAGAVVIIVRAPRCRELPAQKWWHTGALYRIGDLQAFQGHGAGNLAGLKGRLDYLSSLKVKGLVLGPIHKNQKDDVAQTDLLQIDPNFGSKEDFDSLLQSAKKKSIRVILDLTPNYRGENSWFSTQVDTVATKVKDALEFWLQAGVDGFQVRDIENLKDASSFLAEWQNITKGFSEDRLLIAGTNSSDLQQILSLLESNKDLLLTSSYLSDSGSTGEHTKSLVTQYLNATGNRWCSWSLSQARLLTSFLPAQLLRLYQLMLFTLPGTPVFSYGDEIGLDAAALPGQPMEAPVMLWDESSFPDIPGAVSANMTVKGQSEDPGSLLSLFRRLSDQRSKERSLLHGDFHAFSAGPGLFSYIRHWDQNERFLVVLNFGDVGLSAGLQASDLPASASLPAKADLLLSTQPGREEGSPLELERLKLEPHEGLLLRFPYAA", "method": "as §1, §2"}, "b^0,+AT/rBAT": {"target": "T3, b^0,+AT/rBAT (Mus musculus, UniProt Q9QXA6)", "T3 construct": "expressed in transfected cells; host or cells: HRPE cells", "T3 sequence (Q9QXA6 1-487)": "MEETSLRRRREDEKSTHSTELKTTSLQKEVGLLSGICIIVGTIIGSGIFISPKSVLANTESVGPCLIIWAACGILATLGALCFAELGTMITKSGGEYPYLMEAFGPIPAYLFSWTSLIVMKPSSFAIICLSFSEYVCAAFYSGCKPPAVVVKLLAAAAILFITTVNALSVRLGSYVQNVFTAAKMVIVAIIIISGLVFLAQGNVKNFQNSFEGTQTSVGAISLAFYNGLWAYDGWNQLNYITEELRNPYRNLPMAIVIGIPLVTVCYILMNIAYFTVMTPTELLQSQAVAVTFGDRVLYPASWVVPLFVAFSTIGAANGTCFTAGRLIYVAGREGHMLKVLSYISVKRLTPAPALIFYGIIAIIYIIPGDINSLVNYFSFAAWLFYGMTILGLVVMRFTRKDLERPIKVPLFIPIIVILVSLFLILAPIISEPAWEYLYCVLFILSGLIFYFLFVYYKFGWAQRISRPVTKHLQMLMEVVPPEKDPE", "method": "as §1, §2"}, "ATA3": {"target": "T4, ATA3 (Homo sapiens, UniProt Q969I6)", "T4 construct": "expressed in transfected cells; host or cells: HRPE cells", "T4 sequence (Q969I6 1-547)": "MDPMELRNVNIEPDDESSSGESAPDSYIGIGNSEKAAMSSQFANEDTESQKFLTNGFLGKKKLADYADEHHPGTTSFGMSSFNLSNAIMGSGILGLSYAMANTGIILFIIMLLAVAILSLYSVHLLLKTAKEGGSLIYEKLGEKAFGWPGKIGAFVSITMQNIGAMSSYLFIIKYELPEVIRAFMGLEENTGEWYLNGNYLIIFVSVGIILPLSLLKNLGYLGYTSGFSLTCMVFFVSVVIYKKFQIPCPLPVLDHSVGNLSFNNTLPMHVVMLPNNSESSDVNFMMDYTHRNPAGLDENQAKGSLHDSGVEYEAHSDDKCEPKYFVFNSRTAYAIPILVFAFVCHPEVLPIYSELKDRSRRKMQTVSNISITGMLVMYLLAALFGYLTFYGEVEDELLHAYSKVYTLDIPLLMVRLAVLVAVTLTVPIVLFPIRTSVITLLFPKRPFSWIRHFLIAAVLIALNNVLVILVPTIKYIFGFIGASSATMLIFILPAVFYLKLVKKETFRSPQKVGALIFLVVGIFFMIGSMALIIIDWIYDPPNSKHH", "method": "as §1, §2"}},
  "data": [
    {"smiles": "N[C@H](CO)C(=O)O", "note": "[D-Serine, D-serine]", "values": [
      {"measurement": "D-serine transport", "setting": "SN1", "value": "did not transport D-serine"},
      {"measurement": "D-serine transport", "setting": "LAT2/4F2hc", "value": "did not exhibit detectable D-serine transport activity"},
      {"measurement": "D-serine transport", "setting": "b^0,+AT/rBAT", "value": "did not exhibit detectable D-serine transport activity"},
      {"measurement": "D-serine transport", "setting": "ATA3", "value": "did not"}
    ]}
  ]
}
